Assay results as given in patent US20240208992A1, “MACROCYCLES AS CFTR MODULATORS” (Idorsia Pharmaceuticals Ltd, priority 2021, published 2024).

Target: human F508del-CFTR (Homo sapiens, UniProt P13569, DEL508-508)
Assay: F508del-CFTR cell surface expression (corrector activity), DiscoveRx ß-galactosidase complementation chemiluminescence assay in recombinant U2OS cell line;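 also: U2OS cells co-expressing ProLink-tagged F508del-CFTR and a membrane-anchored enzyme acceptor, where more surface CFTR restores β-galactosidase activity measured by chemiluminescence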
Conditions: U2OS cell line, 16h compound incubation; for EC50: EC50, F508del-CFTR cell surface expression, geomean values; for Emax: U2OS, in relation to the Emax of the corrector lumacaftor (=100%), arithmetic mean values

Sequence of human F508del-CFTR (P13569 with tags, fused parts or gaps DEL508-508): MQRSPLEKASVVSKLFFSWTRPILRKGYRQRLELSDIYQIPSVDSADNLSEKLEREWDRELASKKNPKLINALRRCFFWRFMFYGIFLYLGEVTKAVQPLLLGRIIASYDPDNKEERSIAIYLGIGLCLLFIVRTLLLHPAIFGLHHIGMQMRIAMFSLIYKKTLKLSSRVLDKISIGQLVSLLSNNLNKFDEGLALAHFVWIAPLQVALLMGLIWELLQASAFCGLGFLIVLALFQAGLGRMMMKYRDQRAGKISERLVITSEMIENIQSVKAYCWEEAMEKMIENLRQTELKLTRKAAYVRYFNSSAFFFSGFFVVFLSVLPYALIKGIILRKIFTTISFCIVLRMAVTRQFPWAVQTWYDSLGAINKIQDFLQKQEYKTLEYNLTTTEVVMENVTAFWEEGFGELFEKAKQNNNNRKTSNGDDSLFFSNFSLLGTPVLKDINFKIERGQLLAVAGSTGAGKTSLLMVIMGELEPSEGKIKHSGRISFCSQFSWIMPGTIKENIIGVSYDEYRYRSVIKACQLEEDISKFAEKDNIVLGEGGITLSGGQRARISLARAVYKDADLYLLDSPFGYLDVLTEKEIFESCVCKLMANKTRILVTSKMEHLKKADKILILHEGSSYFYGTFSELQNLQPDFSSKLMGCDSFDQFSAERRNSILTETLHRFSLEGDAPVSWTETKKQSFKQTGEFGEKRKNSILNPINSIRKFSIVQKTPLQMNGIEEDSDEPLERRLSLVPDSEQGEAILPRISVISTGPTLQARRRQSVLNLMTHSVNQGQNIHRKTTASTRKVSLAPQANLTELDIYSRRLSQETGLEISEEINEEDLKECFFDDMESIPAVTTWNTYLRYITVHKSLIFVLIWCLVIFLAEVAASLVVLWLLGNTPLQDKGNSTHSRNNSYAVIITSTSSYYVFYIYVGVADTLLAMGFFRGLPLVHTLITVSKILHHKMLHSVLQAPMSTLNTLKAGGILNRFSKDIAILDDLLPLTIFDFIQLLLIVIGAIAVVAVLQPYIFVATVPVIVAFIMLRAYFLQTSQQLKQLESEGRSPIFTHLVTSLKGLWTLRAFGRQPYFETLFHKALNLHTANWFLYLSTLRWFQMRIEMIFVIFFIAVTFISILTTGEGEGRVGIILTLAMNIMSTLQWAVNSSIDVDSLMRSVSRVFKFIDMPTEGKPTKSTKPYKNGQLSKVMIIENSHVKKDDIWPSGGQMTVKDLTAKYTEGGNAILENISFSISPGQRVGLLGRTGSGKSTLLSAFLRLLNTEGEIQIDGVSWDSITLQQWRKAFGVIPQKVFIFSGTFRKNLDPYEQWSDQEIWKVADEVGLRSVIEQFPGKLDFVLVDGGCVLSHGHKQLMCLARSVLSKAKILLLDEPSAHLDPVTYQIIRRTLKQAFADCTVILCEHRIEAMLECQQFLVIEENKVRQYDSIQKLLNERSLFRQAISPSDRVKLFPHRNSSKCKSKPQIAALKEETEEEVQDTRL

EC50 [nM]	Emax [%]	SMILES
647	248	COc1nccc2c1C(=O)N[C@H](C(=O)NCCc1cc(C(F)(F)F)no1)CC(=O)N(C)[C@@H](CC(C)C)C(=O)N1CCCC[C@@H]1C(=O)N[C@H](Cc1ccccc1)CO2 [Example 177, (7S,11S,17aR,20R)-20-benzyl-11-isobutyl-4-methoxy-10-methyl-5,9,12,18-tetraoxo-N-(2-(3-(trifluoromethyl)isoxazol-5-yl)ethyl)-5,6,7,8,9,10,11,12,15,16,17,17a,18,19,20,21-hexadecahydro-14H-dipyrido[2,1-f:3′,4′-p][1]oxa[4,7,10,14]tetraazacycloheptadecine-7-carboxamide]
680	237	COc1nccc2c1C(=O)N[C@H](C(=O)NCCc1nc(C(F)(F)F)no1)CC(=O)N(C)[C@@H](CC(C)C)C(=O)N1CCCC[C@@H]1C(=O)N[C@H](Cc1ccccc1)CO2 [Example 178, (7S,11S,17aR,20R)-20-benzyl-11-isobutyl-4-methoxy-10-methyl-5,9,12,18-tetraoxo-N-(2-(3-(trifluoromethyl)-1,2,4-oxadiazol-5-yl)ethyl)-5,6,7,8,9,10,11,12,15,16,17,17a,18,19,20,21-hexadecahydro-14H-dipyrido[2,1-f:3′,4′-p][1]oxa[4,7,10,14]tetraazacycloheptadecine-7-carboxamide]
731	251	COc1nccc2c1C(=O)N[C@H](C(=O)NCCn1cc(C3CC3)cn1)CC(=O)N(C)[C@@H](CC(C)C)C(=O)N1CCCC[C@@H]1C(=O)N[C@H](Cc1ccccc1)CO2 [Example 179, (7S,11S,17aR,20R)-20-benzyl-N-(2-(4-cyclopropyl-1H-pyrazol-1-yl)ethyl)-11-isobutyl-4-methoxy-10-methyl-5,9,12,18-tetraoxo-5,6,7,8,9,10,11,12,15,16,17,17a,18,19,20,21-hexadecahydro-14H-dipyrido[2,1-f:3′,4′-p][1]oxa[4,7,10,14]tetraazacycloheptadecine-7-carboxamide]
718	251	COc1nccc2c1C(=O)N[C@H](C(=O)NCCc1ccc(-c3ncccn3)cc1)CC(=O)N(C)[C@@H](CC(C)C)C(=O)N1CCCC[C@@H]1C(=O)N[C@H](Cc1ccccc1)CO2 [Example 181, (7S,11S,17aR,20R)-20-benzyl-11-isobutyl-4-methoxy-10-methyl-5,9,12,18-tetraoxo-N-(4-(pyrimidin-2-yl)phenethyl)-5,6,7,8,9,10,11,12,15,16,17,17a,18,19,20,21-hexadecahydro-14H-dipyrido[2,1-f:3′,4′-p][1]oxa[4,7,10,14]tetraazacycloheptadecine-7-carboxamide]
406	270	COc1nccc2c1C(=O)N[C@H](C(=O)NCCc1nc(-c3ccccc3)no1)CC(=O)N(C)[C@@H](CC(C)C)C(=O)N1CCCC[C@@H]1C(=O)N[C@H](Cc1ccccc1)CO2 [Example 182, (7S,11S,17aR,20R)-20-benzyl-11-isobutyl-4-methoxy-10-methyl-5,9,12,18-tetraoxo-N-(2-(3-phenyl-1,2,4-oxadiazol-5-yl)ethyl)-5,6,7,8,9,10,11,12,15,16,17,17a,18,19,20,21-hexadecahydro-14H-dipyrido[2,1-f:3′,4′-p][1]oxa[4,7,10,14]tetraazacycloheptadecine-7-carboxamide]
645	267	COc1nccc2c1C(=O)N[C@H](C(=O)NCCc1cnn(C3CC3)n1)CC(=O)N(C)[C@@H](CC(C)C)C(=O)N1CCCC[C@@H]1C(=O)N[C@H](Cc1ccccc1)CO2 [Example 187, (7S,11S,17aR,20R)-20-benzyl-N-(2-(2-cyclopropyl-2H-1,2,3-triazol-4-yl)ethyl)-11-isobutyl-4-methoxy-10-methyl-5,9,12,18-tetraoxo-5,6,7,8,9,10,11,12,15,16,17,17a,18,19,20,21-hexadecahydro-14H-dipyrido[2,1-f:3′,4′-p][1]oxa[4,7,10,14]tetraazacycloheptadecine-7-carboxamide]
586	275	COc1cnn(CCNC(=O)[C@@H]2CC(=O)N(C)[C@@H](CC(C)C)C(=O)N(C)C3(CC3)C(=O)N[C@H](Cc3ccccc3)COc3cnc4ccc(F)cc4c3C(=O)N2)c1 [Example 188, (3′S,7′S,13′R)-13′-benzyl-20′-fluoro-7′-isobutyl-N-(2-(4-methoxy-1H-pyrazol-1-yl)ethyl)-6′,9′-dimethyl-1′,5′,8′,11′-tetraoxo-2′,3′,4′,5′,6′,7′,8′,9′,11′,12′,13′,14′-dodecahydro-1′H-spiro[cyclopropane-1,10′-[1]oxa[4,7,10,14]tetraazacycloheptadecino[17,16-c]quinoline]-3′-carboxamide]
453	270	C#Cc1cccc(CCNC(=O)[C@@H]2CC(=O)N(C)[C@@H](CC(C)C)C(=O)N3CCCC[C@@H]3C(=O)N[C@H](Cc3ccccc3)COc3ccnc(OC)c3C(=O)N2)c1 [Example 189, (7S,11S,17aR,20R)-20-benzyl-N-(3-ethynylphenethyl)-11-isobutyl-4-methoxy-10-methyl-5,9,12,18-tetraoxo-5,6,7,8,9,10,11,12,15,16,17,17a,18,19,20,21-hexadecahydro-14H-dipyrido[2,1-f:3′,4′-p][1]oxa[4,7,10,14]tetraazacycloheptadecine-7-carboxamide]
334	310	COc1nccc2c1C(=O)N[C@H](C(=O)NCCc1nc3c(s1)CCC3)CC(=O)N(C)[C@@H](CC(C)C)C(=O)N1CCCC[C@@H]1C(=O)N[C@H](Cc1ccccc1)CO2 [Example 190, (7S,11S,17aR,20R)-20-benzyl-N-(2-(5,6-dihydro-4H-cyclopenta[d]thiazol-2-yl)ethyl)-11-isobutyl-4-methoxy-10-methyl-5,9,12,18-tetraoxo-5,6,7,8,9,10,11,12,15,16,17,17a,18,19,20,21-hexadecahydro-14H-dipyrido[2,1-f:3′,4′-p][1]oxa[4,7,10,14]tetraazacycloheptadecine-7-carboxamide]
474	295	COc1nccc2c1C(=O)N[C@H](C(=O)NCCc1cc(C(F)F)no1)CC(=O)N(C)[C@@H](CC(C)C)C(=O)N1CCCC[C@@H]1C(=O)N[C@H](Cc1ccccc1)CO2 [Example 191, (7S,11S,17aR,20R)-20-benzyl-N-(2-(3-(difluoromethyl)isoxazol-5-yl)ethyl)-11-isobutyl-4-methoxy-10-methyl-5,9,12,18-tetraoxo-5,6,7,8,9,10,11,12,15,16,17,17a,18,19,20,21-hexadecahydro-14H-dipyrido[2,1-f:3′,4′-p][1]oxa[4,7,10,14]tetraazacycloheptadecine-7-carboxamide]

SMILES	EC50 [nM]	Emax [%]
COc1cccc(CCNC(=O)[C@@H]2CC(=O)N(C)[C@@H](CC(C)C)C(=O)N3CCCC[C@@H]3C(=O)N[C@H](Cc3ccccc3)COc3ccnc(OC)c3C(=O)N2)c1 [Example 180, (7S,11S,17aR,20R)-20-benzyl-11-isobutyl-4-methoxy-N-(3-methoxyphenethyl)-10-methyl-5,9,12,18-tetraoxo-5,6,7,8,9,10,11,12,15,16,17,17a,18,19,20,21-hexadecahydro-14H-dipyrido[2,1-f:3′,4′-p][1]oxa[4,7,10,14]tetraazacycloheptadecine-7-carboxamide]	388	257
COc1nccc2c1C(=O)N[C@H](C(=O)NCCc1ccccc1)CC(=O)N(C)[C@@H](CC(C)C)C(=O)N1CCCC[C@@H]1C(=O)N[C@H](Cc1ccccc1)CO2 [Example 183, (7S,11S,17aR,20R)-20-benzyl-11-isobutyl-4-methoxy-10-methyl-5,9,12,18-tetraoxo-N-phenethyl-5,6,7,8,9,10,11,12,15,16,17,17a,18,19,20,21-hexadecahydro-14H-dipyrido[2,1-f:3′,4′-p][1]oxa[4,7,10,14]tetraazacycloheptadecine-7-carboxamide]	621	237
COc1nccc2c1C(=O)N[C@H](C(=O)NCCc1ccc(Br)cc1)CC(=O)N(C)[C@@H](CC(C)C)C(=O)N1CCCC[C@@H]1C(=O)N[C@H](Cc1ccccc1)CO2 [Example 184, (7S,11S,17aR,20R)-20-benzyl-N-(4-bromophenethyl)-11-isobutyl-4-methoxy-10-methyl-5,9,12,18-tetraoxo-5,6,7,8,9,10,11,12,15,16,17,17a,18,19,20,21-hexadecahydro-14H-dipyrido[2,1-f:3′,4′-p][1]oxa[4,7,10,14]tetraazacycloheptadecine-7-carboxamide]	410	205
COc1ccc(CCNC(=O)[C@@H]2CC(=O)N(C)[C@@H](CC(C)C)C(=O)N3CCCC[C@@H]3C(=O)N[C@H](Cc3ccccc3)COc3ccnc(OC)c3C(=O)N2)cc1 [Example 185, (7S,11S,17aR,20R)-20-benzyl-11-isobutyl-4-methoxy-N-(4-methoxyphenethyl)-10-methyl-5,9,12,18-tetraoxo-5,6,7,8,9,10,11,12,15,16,17,17a,18,19,20,21-hexadecahydro-14H-dipyrido[2,1-f:3′,4′-p][1]oxa[4,7,10,14]tetraazacycloheptadecine-7-carboxamide]	379	275
COc1nccc2c1C(=O)N[C@H](C(=O)NCCc1cccc(C)c1)CC(=O)N(C)[C@@H](CC(C)C)C(=O)N1CCCC[C@@H]1C(=O)N[C@H](Cc1ccccc1)CO2 [Example 186, (7S,11S,17aR,20R)-20-benzyl-11-isobutyl-4-methoxy-10-methyl-N-(3-methylphenethyl)-5,9,12,18-tetraoxo-5,6,7,8,9,10,11,12,15,16,17,17a,18,19,20,21-hexadecahydro-14H-dipyrido[2,1-f:3′,4′-p][1]oxa[4,7,10,14]tetraazacycloheptadecine-7-carboxamide]	644	209
COc1cc2c(cc1OC)C(=O)N[C@H](C(=O)NCCc1ccc(C)cc1)CC(=O)N(C)[C@@H](CC(C)C)C(=O)N(C)CC(=O)N[C@H](Cc1ccccc1)CO2 [Example 192, (3R,9S,13S)-3-benzyl-9-isobutyl-17,18-dimethoxy-7,10-dimethyl-N-(4-methylphenethyl)-5,8,11,15-tetraoxo-2,3,4,5,6,7,8,9,10,11,12,13,14,15-tetradecahydrobenzo[p][1]oxa[4,7,10,14]tetraazacycloheptadecine-13-carboxamide]	316	107
